Data: US20100249064A1, “METHODS AND COMPOSITIONS FOR TREATING DISEASES AND CONDITIONS INVOLVING HIGHER MOLECULAR WEIGHT HYALURONAN” (University of Chicago, priority 2007, published 2010)
“Also recorded” adds a separate entry of the source.

What was measured:
ARDS = settings: cited from earlier work; for Outcome (clinical trials in ARDS): patients with ARDS
MARCKS and NHE1 = test: LPS-induced phosphorylation of MARCKS and NHE1 (immunoprecipitation/immunoblot); assay type: cell-based, human; settings: LPS 1 μg/ml, 4 hours, HMW-HA 100 nM or Y-27632 500 nM
[1] = system: LPS-induced murine lung vascular permeability; test: LPS-induced murine lung vascular permeability, bronchioalveolar lavage (BAL) protein and cytokines; assay type: in vivo, mouse
Protocol: Animal Preparation and Treatment—Male C57BL/6J and CD44 knockout mice (8-10 weeks, Jackson Laboratories, Bar Harbor, Me.) were anesthetized with intraperitoneal ketamine (150 mg/kg) and acetylpromazine (15 mg/kg) according to approved protocols. LPS (2.5 mg/kg) or saline (control) were instilled intratracheally and four hours later, HGF (50 μg/kg) or saline control delivered intravenously through the internal jugular vein. The animals were allowed to recover for 24 h followed by bronchioalveolar lavage protein analysis and/or lung immunohistochemistry.
Determination of Bronchioalveolar Lavage Protein Concentration—Bronchioalveolar lavage (BAL) was performed by an intratracheal injection of 1 cc of Hank's balanced salt solution followed by gentle aspiration. The recovered fluid was processed for protein concentration (BCA Protein Assay Kit; Pierce Chemical Co., Rockford, Ill.) as described (Su et al., 2004).
Animals. Male C57BL/6J mice, CD44 knockout mice, Caveolin-1 knockout mice (8-10 weeks, Jackson Laboratories, Bar Harbor, Me.) were anesthetized with intraperitoneal ketamine (150 mg/kg) and acetylpromazine (15 mg/kg) according to approved protocols. LPS (2.5 mg/kg) or saline (control) were instilled intratracheally and four hours later, HMW-HA (1.5 mg/kg) or saline control delivered intravenously through the internal jugular vein. The animals were allowed to recover for 24 hours followed by bronchioalveolar lavage protein analysis and/or lung immunohistochemistry.
Determination of protein concentration. Total protein concentration. TGF-alpha concentration. TGF-beta1 concentration. Bronchioalveolar lavage (BAL) was performed by an intratracheal injection of 1 cc of Hank's balanced salt solution followed by gentle aspiration. The recovered fluid was processed for protein concentration (BCA Protein Assay Kit; Pierce Chemical Co., Rockford, Ill.) or used to determine TNF-α and TGF-β1 concentrations using quantitative sandwich enzyme immunoassays (R & D Systems, Minneapolis, Minn.).
Animal Preparation and Treatment. Male C57BL/6J, B6129N2, CD44^−/− or caveolin-1^−/− mice (8-10 weeks, Jackson Laboratories, Bar Harbor, Me.) were anesthetized with intraperitoneal ketamine (150 mg/kg) and acetylpromazine (15 mg/kg) before exposure of the right internal jugular vein via neck incision. LPS (2.5 mg/kg) or water (control) were instilled intratracheally. Four hours later, mice receive high MW HA (1.5 mg/kg) or water control through the internal jugular vein. The animals were allowed to recover for 24 hours after LPS before bronchioalveolar lavage protein and cytokine concentration and/or lung immunohistochemistry/immunoblot analysis (Peng et al., 2004).
Determination of Bronchoavleolar Lavage Protein and Cytokine Concentration. Bronchioalveolar lavage (BAL) was performed by an intratracheal injection of 1 cc of Hank's balanced salt solution followed by gentle aspiration. The recovered fluid was processed for protein concentration (BCA Protein Assay Kit; Pierce Chemical Co., Rockford, Ill.) (Peng et. al., 2004). Cytokines (IL-6, TNFalpha) were measured using a Quantikine sandwich ELISA kit (R & D Systems).

Rac1 = Rac1 activation assay, HGF; assay type: cell-based, human; settings: HGF 25 ng/ml
Protocol: Rac1 Activation Assay—Rac1 activity assays were performed as described (Ren et al., 1999) in human lung EC.

[2] = system: c-Met, CD44v10, Tiam1, cortactin, dynamin 2 in CEM; test: HGF-induced recruitment of proteins to caveolin-enriched microdomains (CEM); assay type: cell-based, human
Protocol: Caveolin-enriched microdomain (CEM) isolation—Caveolin-enriched microdomain known as detergent-resistant membranes (DRM) or lipid rafts were isolated from HPMVEC (Singleton et al., 2006; Singleton et al., 2005). Triton X-100-insoluble materials were mixed with 0.6 ml of cold 60% Optiprep™ and then overlaid with 0.6 ml of 40%-20% Optiprep™. Gradients were centrifuged (35,000 rpm) in SW60 rotor for 12 h at 4° C. and different fractions were collected and analyzed.
Immunoprecipitation and Immunoblotting—Cellular materials from treated or untreated HPMVEC were incubated with IP buffer (50 mM HEPES (pH 7.5), 150 mM NaCl, 20 mM MgCl2, 1% Nonidet P-40 (NP-40), 0.4 mM Na3VO4, 40 mM NaF, 50 μM okadaic acid, 0.2 mM phenylmethylsulfonyl fluoride, 1:250 dilution of Calbiochem protease inhibitor mixture 3). Following immunoprecipitation with either anti-CD44 or anti-dynamin 2 IgG, the samples were subjected to SDS-PAGE in 4-15% polyacrylamide gels, transferred onto Immobilon™ membranes, and developed with specific primary and secondary antibodies. Enhanced chemiluminescence (Amersham Biosciences) was used to visualize immunoreactive bands. In some instances, standardized average grey values (S.A.G.V., processed from ImageQuant™ software (Amersham Biosciences)) were obtained for immunoreactive bands for quantification.
Determination of Complex Formation between CD44 and c-Met—Solubilized CEM proteins in IP buffer (see above) were immunoprecipitated with rat anti-CD44 antibody or anti-c-Met antibody followed by SDS-PAGE in 4-15% polyacrylamide gels and transfer onto Immobilon™ membranes (Millipore Corp., Bedford, Mass.). Nonspecific sites were blocked with 5% bovine serum albumin, and then the blots were incubated with either rat anti-CD44 antibody or mouse anti-c-Met antibody followed by incubation with horseradish peroxidase (HRP)-labeled goat anti-mouse or goat anti-rat IgG. Visualization of immunoreactive bands was achieved using enhanced chemiluminescence (Amersham Biosciences).

purified HABP2 = target: T1, purified HABP2 (Homo sapiens, UniProt Q14520); test: HABP2 protease assay (QuantiCleave, succinylated casein); assay type: biochemical; settings: 100 μM purified PABD, 500 nM HMW-HA or LMW-HA
T1 construct: host or cells: human pulmonary endothelial cells (EC); secreted into the medium, immunoprecipitated with anti-HABP2 antibody
T1 sequence (Q14520 24-560): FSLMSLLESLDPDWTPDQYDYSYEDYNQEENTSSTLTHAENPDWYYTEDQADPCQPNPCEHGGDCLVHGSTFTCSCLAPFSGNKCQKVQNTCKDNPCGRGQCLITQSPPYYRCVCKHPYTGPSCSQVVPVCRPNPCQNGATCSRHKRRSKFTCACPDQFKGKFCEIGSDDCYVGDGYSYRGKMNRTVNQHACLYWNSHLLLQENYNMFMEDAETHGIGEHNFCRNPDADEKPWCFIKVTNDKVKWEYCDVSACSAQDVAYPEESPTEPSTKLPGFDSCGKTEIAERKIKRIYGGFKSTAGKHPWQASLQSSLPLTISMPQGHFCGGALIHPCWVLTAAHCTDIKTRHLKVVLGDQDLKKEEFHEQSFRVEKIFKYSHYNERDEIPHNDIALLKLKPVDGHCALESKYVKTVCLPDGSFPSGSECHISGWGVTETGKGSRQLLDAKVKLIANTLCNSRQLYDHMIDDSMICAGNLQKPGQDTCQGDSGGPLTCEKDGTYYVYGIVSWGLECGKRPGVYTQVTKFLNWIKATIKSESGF
Protocol: HABP2 protease assay. Protease activity is measured using the QuantiCleave™ Protease Assay Kit (Pierce). Briefly, the immunobeads are incubated with succinylated casein for one hour followed by development with TNBSA (2,4,6-trinitrobenzene sulfonic acid) and read at 450 nm.
HABP2 protein purification and protease activity determination. Media from HABP2 overexpression vector-transfected EC (Origene) was immunoprecipitated with anti-HABP2 antibody-conjugated Sepharose beads (Sigma). The immunobeads were then extensively washed in 50 mM Borate, pH=8.5 and eluted with 1M NaCl with 0.1% NP-40 and dialyzed against a 1,000 fold excess of 50 mM Borate, pH=8.5. Protein assays were performed to quantitate total protein. The purified protein was run on SDS-PAGE and either immunoblotted with anti-HABP2 antibody (Novus Biologicals) or stained with Imperial™ protein stain (Pierce) to check for purity. Protease activity was measured using the QuantiCleave™ Protease Assay Kit (Pierce). Briefly, the immunobeads were incubated with succinylated casein for one hour followed by development with TNBSA (2,4,6-trinitrobenzene sulfonic acid) and read at 450 nm.
Determination of the role of HMW-HA/HABP2/C1INH interactions in regulating angiogenesis in vitro. Human pulmonary EC (Cambrex), grown in EBM-2 complete medium (Cambrex) at 37° C. in a humidified atmosphere of 5% CO2, 95% air, with passages 6-10 used for experimentation will be treated with or without 100 nM HMW-HA and/or 100 nM VEGF in the presence or absence of HABP2 and/or C1INH overexpression vectors (Origene), exogenous purified recombinant HABP2 polyanion binding domain and/or C1INH (Novus Biologicals) and/or siRNA (scramble, HABP2 or C1INH). For HABP2 protease activity determination, media from HABP2 overexpressing EC (see above) was immunoprecipitated with anti-HABP2 antibody-conjugated Sepharose beads (Sigma). The immunobeads were then extensively washed in 50 mM Borate, pH=8.5 and protease activity was measured using the QuantiCleave™ Protease Assay Kit (Pierce). Briefly, the immunobeads were incubated with succinylated casein for one hour followed by development with TNBSA (2,4,6-trinitrobenzene sulfonic acid) and read at 450 nm.

[3] = target: Hyaluronic Acid Binding Protease 2 (HABP2), human (human, UniProt Q14520 24-560, limits assumed); test: anti-HABP2 immunoprecipitation of EC media, non-reducing SDS-PAGE, immunoblot with anti-HABP2 or anti-C1INH
Hyaluronic Acid Binding Protease 2 (HABP2), human, sequence (Q14520 24-560 limits assumed): as the sequence (Q14520 24-560) above

C[C@@H](O)CCCCn1c(=O)c2c(ncn2C)n(C)c1=O [Lisofylline]
Outcome (clinical trials in ARDS) (ARDS): trials failed to show efficacy in increasing

C[C@H]1C[C@@H]2[C@H]([C@@H](O)C[C@@]3(C)[C@H]2CC[C@]3(O)C(=O)CO)[C@@]2(C)C=CC(=O)C=C12 [Methyprednisolone]
hospital mortality (ARDS; administered through the fibroproliferative stage of ARDS, 62% in placebo cohort): hospital mortality to 12% from 62% in placebo

C[C@@H](N)[C@H]1CC[C@H](C(=O)Nc2ccncc2)CC1 [Y-27632, reference compound]
LPS-induced phosphorylation of MARCKS and NHE1 (MARCKS and NHE1): inhibit LPS-induced phosphorylation of MARCKS and NHE1

HGF: Recombinant human hepatocyte growth factor (HGF), Chemicon International
protective effect on LPS-induced pulmonary hyper-permeability (BAL) in knockout mice ([1]; CD44 knockout (and, where stated, Caveolin-1 knockout) mice, same regimen): markedly attenuated in the CD44 knockout mouse; also recorded: significant difference (p<0.05) between the wildtype and CD44 knockout mouse HGF+LPS treatment | LPS-induced pulmonary hyper-permeability (BAL protein concentration) ([1]; wildtype C57BL/6J mice, LPS 2.5 mg/kg intratracheally, HMW-HA 1.5 mg/kg or HGF 50 μg/kg intravenously 4 hours after LPS, BAL at 24 hours): pulmonary hyper-permeability was attenuated; also recorded: significant difference (p<0.05) between LPS treatment and HGF+LPS treatment | Rac1 activation (Rac1): induced Rac1 activation | recruitment of Tiam1, cortactin and dynamin 2 to CEM ([2]; HGF 25 ng/ml): increased recruitment to these caveolin-enriched plasma membrane microdomain structures | recruitment of total CD44v10 into CD44s-containing CEM ([2]; HGF 25 ng/ml): ~70% | recruitment of total c-Met into CD44s-containing CEM ([2]; HGF 25 ng/ml): ~55% | association of c-Met with CD44v10 in CEM ([2]; HGF 25 ng/ml, 5, 15 or 30 min): induce an association that is time-dependent of c-Met with CD44v10

Nitric Oxide [NO]
adverse effects (ARDS; ARDS patients): causes methemoglobinemia, increased | pulmonary artery pressure (ARDS; ARDS patients): NO reduces pulmonary artery pressure but | Outcome (clinical trials in ARDS) (ARDS): several multicenter clinical trials have shown no

B1: recombinant peptide of the PABD of HABP2: recombinant HABP2 polyanion binding domain, amino acids 110-188 of SEQ ID NO:2 (SEQ ID NO:37) (protein, listed as Homo sapiens)
chain: KVQNTCKDNPCGRGQCLITQSPPYYRCVCKHPYTGPSCSQVVPVCRPNPCQNGATCSRHKRRSKFTCACPDQFKGKFCE
blocking of HA effects on HABP2 protease activity (purified HABP2): The effects of LMW-HA, but not HMW-HA, were blocked

B2: C1INH, human (other, UniProt P05155 23-500, looked up)
chain: NPNATSSSSQDPESLQDRGEGKVATTVISKMLFVEPILEVSSLPTTNSTTNSATKITANTTDEPTTQPTTEPTTQPTIQPTQPTTQLPTDSPTQPTTGSFCPGPVTLCSDLESHSTEAVLGDALVDFSLKLYHAFSAMKKVETNMAFSPFSIASLLTQVLLGAGENTKTNLESILSYPKDFTCVHQALKGFTTKGVTSVSQIFHSPDLAIRDTFVNASRTLYSSSPRVLSNNSDANLELINTWVAKNTNNKISRLLDSLPSDTRLVLLNAIYLSAKWKTTFDPKKTRMEPFHFKNSVIKVPMMNSKKYPVAHFIDQTLKAKVGQLQLSHNLSLVILVPQNLKHRLEDMEQALSPSVFKAIMEKLEMSKFQPTLLTLPRIKVTTSQDMLSIMEKLEFFDFSYDLNLCGLTEDPDLQVSAMQHQTVLELTETGVEAAAASAISVARTLLVFEVQQPFLFVLWDQQHKFPVFMGRVYDPRA
notes: also called C1NH; C1 NH
binding result [3]: binds
